According to patent publication US8999934B2, “Treatment of astrocytes-tumor cells inhibitors of endothelin receptors” (Board of Regents, The University of Texas System, priority 2009, dated 2015):
“And” between values parts separate entries of the source, which are not always exact repeats. Equal values may be shown once.

Assays:
[1] = system: human PC14Br4 lung cancer cells; format: cell-based; conditions: for protection of tumor cells against the drug by co-culture with astrocytes: cultured alone vs with astrocytes, Adriamycin 200 ng/ml, vinblastine 3 ng/ml, vincristine 8 ng/ml, 5-FU 500 ng/ml, cisplatinum 2.4 μg/ml
Experimental: (§1) Astrocytes and NIH 3T3 fibroblasts were transfected with GFP genes as previously described (S5, S6). Target tumor cells, astrocytes, or 3T3 fibroblasts were harvested from a 60-70% confluent culture by a brief (2-minute) exposure to 0.25% trypsin in a 0.1% EDTA/PBS solution. The cells were dislodged by tapping the culture flasks briskly and resuspended in CMEM. The murine astrocytes, 3T3 fibroblasts, and tumor cells were plated alone or as co-culture at a tumor cell/astrocyte/3T3 cell ratio of 1:2 onto each of the 35-mm diameter well of the sterile 6-well tissue culture multi-well dish. The cells were allowed to adhere overnight in a humidified 37° C. incubator in an atmosphere of 6.4% carbon dioxide plus air. The cultures were then washed and incubated with fresh CMEM (negative control) or medium containing various concentrations of TAXOL® (Paclitaxel; NDC 0015-3476-30, Bristol-Myers Squibb, Princeton, N.J.) and other chemotherapeutic drugs (see below).
(§2) To determine whether direct contact between tumor cells and astrocytes (or fibroblasts serving as control) was a prerequisite to produce induction of resistance to chemotherapy, we performed the co-culture assay using a Transwell-Boyden chamber, i.e., plating the tumor cells in the chamber and the ImmortoAstrocytes (or fibroblasts) in the well. […]
In the second set of in vitro studies, we determined whether astrocyte-mediated induction of tumor cell resistance to chemotherapeutic drugs is transient or permanent. The human lung cancer PC14Br4 cells were co-cultured with either astrocytes or 3T3 fibroblasts in medium alone or medium containing 5 ng/ml paclitaxel. […] From parallel wells, we harvested surviving tumor cells and re-plated them on different monolayers of astrocytes or 3T3 cells. These co-cultures were of tumor cells first co-cultured with astrocytes and then with either astrocytes or 3T3 cells, or of tumor cells first cultured with 3T3 cells and then with either 3T3 cells or astrocytes. The second round of co-cultures then received media containing 5 ng/ml of paclitaxel. […]
(§3) The supernatant medium containing floating cells were collected from each dish into a 15-ml conical centrifuge tube. The attached cells were harvested by briefly exposing the cells to 0.25% trypsin in a solution containing 0.1% EDTA/PBS. Cells were combined with the corresponding supernatant medium. The samples were pelleted by centrifugation at 100 g for 5 minutes. The pellets were resuspended in 10 ml of HBSS and further pelleted at 100 g for 5 minutes. The samples were resuspended by vortex and the cells fixed in 1 ml of 1% paraformaldehyde for 10 minutes at room temperature. The samples were then transferred into polypropylene microcentrifuge tubes and the fixed cells were washed in 1 ml of PBS and then pelleted at 10,000 g for 1 minute. The pellets were resuspended by vortex and the cells fixed overnight in 1 ml of ethanol at −20° C. The cells were subsequently vortexed and pelleted by a microcentrifuge at 10,000 g for 1 minute. The samples were then vortexed and the pellets resuspended and stained in 300 of propidium iodide (50 μg/ml; Cat. P4864, Sigma) containing RNAse (15 μg/ml; Cat. A7973, Promega, Madison, Wis.) for 20-30 minutes at 37° C.

pMAPK = assay: Expression of survival factor pMAPK in co-cultures of astrocytes and tumor cells; format: cell-based; conditions: ACT-064992 added to co-cultures of astrocytes and tumor cells
Experimental: (§4) ETR antagonists as shown above were ineffective as a single agent chemotherapy. This negative result made the dramatic effect seen with ETR antagonists as a component of combination therapies highly unexpected. In co-culture experiments, cell culture ratios were 1:2 tumor cell:astrocyte cell (50, 000:100,000), and treatments were using paclitaxel (TAXOL®) (6 ng/ml) and/or ACT-064992 (100 nM) for 48 hours (FIG. 15; *p<0.01). For the control experiments using MDA-MB-231 cells, the same astrocyte-mediated protection from paclitaxel occurred as in prior experiments. There were two surprising results from these combination experiments.

[2] = system: MDA231 breast cancer brain metastasis; assay: Survival study, experimental human MDA231 breast cancer brain metastasis; format: in vivo, nude mice; conditions: 5×10^3 MDA231 cells, treatment from day 14, Paclitaxel 5 mg/kg i.p. once weekly, individual mice
Experimental: 5×10^3 MDA231 cells were injected according to the protocol in Experiment 10. Treatment began on day 14 after injection according to the protocol in Experiment 10. A Survival curve is drawn and the p-value derived to compare the statistical significance among treatment groups.
Control (vehicle): daily oral administrations and once weekly i.p. injections.
Paclitaxel (5 mg/kg): daily oral vehicle administrations and once weekly i.p. injection of Paclitaxel.
ACT064992 (10 mg/kg): daily oral ACT064992 administrations and once weekly i.p. injections of Paclitaxel.

MDA231 brain metastases [3] = assay: In vivo tumor cell proliferation, CD31/Ki67 staining of brain slices; design: species or system nude mice; conditions: Paclitaxel 8 mg/kg i.p. once per week, ACT-064992 50 mg/kg orally once per day, 28 days
Source text: Representative brain slices from the four treatment groups were stained for CD31 (endothelial cell marker) and Ki67 (cell proliferation marker). […] FIGS. 20A, B, C and D, respectively.

MDA231 brain metastases [4] = assay: In vivo tumor growth of MDA231 brain metastases (brain sections fixed and stained); design: species or system nude mice; conditions: Paclitaxel 8 mg/kg i.p. once per week, ACT-064992 50 mg/kg orally once per day, 28 days of treatment
Experimental: To further validate the efficacy of endothelin receptor antagonist therapy for existing brain metastasis, the Inventors performed exemplary in vivo experiments using mice. Nude mice were injected with 10,000 viable MDA231 cells mice by way of the internal carotid artery. […] The Inventors thus started treatments at this time point.
The treatment groups at two weeks post injection were: Control (vehicle) (FIG. […] 18B); ACT-064992 50 mg/kg, p.o. daily (FIG. […] 18D).
All mice were killed on day 28 of treatment. Brain sections were fixed and stained. Brain metastases were evaluated visually. Exemplary specimens are shown in FIG. 18A-D at the same magnifications.

ETAR = assay: ETAR/phosphoserine immunostaining of brain slices; conditions: Paclitaxel 8 mg/kg i.p. once per week, ACT-064992 50 mg/kg orally once per day, 28 days
Experimental: Female nude mice (10-12 weeks old) were injected in the internal carotid artery with 10,000 viable MDA231 cells. Two weeks after the injection when brain metastases were established, the mice were randomized into 4 treatment groups (n=10): 1) Control (injected with vehicle solution); 2) Paclitaxel (8 mg/kg administered intraperitoneally once per week); 3) ACT-064992 (50 mg/kg administered orally once per day); and 4) Combination of ACT-064992 and Paclitaxel. All mice were euthanized after 28 days of treatment and autopsied. The brains were collected for histologic study and immunohistochemistry.
Brain slices of mice from the four treatment groups were immunostained for ETAR (red) and phosphoserine (green) colocalization produced orange-yellow color.

ETAR/ETBR = conditions: requires ⅓ the dose; cited from earlier work
pAKT [5] = assay: Expression of survival factor pAKT in co-cultures of astrocytes and tumor cells; format: cell-based; conditions: ACT-064992 added to co-cultures of astrocytes and tumor cells
Experimental: as §4

[6] = system: human MDA-MB-231 breast cancer cells; format: cell-based
Experimental: as §1, §2, §3

MDA231 brain metastases [7] = assay: In vivo tumor cell apoptosis, TUNEL of brain slices; design: species or system nude mice; conditions: Paclitaxel 8 mg/kg i.p. once per week, ACT-064992 50 mg/kg orally once per day, 28 days
Experimental: Brain slices of mice from different treatment groups were analyzed by in situ Terminal deoxynucleotidyl transferase dUTP nick end labeling (TUNEL). Negoescu A, et al., J Histochem Cytochem. 1996 September; 44(9):959-68. […] FIG. 21A-C.

[8] = system: tumor cells co-cultured with astrocytes; assay: In vitro cell based chemoresistance assay with endothelin receptor antagonists (overall statement); conditions: higher dose Bosentan
Source text: Using the in vitro cell based chemoresistance assay scheme described above, the Inventors tested two endothelin receptor antagonists having dual ETAR and ETBR affinity to assess the degree of astrocyte-mediated protection against the cytotoxic effects of the chemotherapy agent.

pAKT [9] = assay: pAKT staining of MDA-MB-231 cells co-cultured with astrocytes and treated with Taxol; format: cell-based, human; conditions: MDA-MB-231 co-cultured with astrocytes; Taxol 15 ng/ml, 24 hours
Experimental: In the next set of studies, 10,000 GFP-labeled MDA-MB-231 cells were co-cultured with 20,000 astrocytes in chamber slides. Twenty-four hours later, the cultures were treated for 24 hours with Taxol (15 ng/ml) and then stained for phosphorylated pAKT (4% PFA fixation).

[10] = 100 nM, 48 hours, alone or with astrocytes or with 3T3 fibroblasts
[11] = tumor cell-astrocyte co-cultures 1:2, paclitaxel 6 ng/ml, ACT-064992 100 nM, 48 hours

O=c1[nH]cc(F)c(=O)[nH]1 [5-FU]
protection of tumor cells against the drug by co-culture with astrocytes ([1]; paclitaxel 5 ng/ml): significant (P<0.01) protection

CCCNS(=O)(=O)Nc1ncnc(OCCOc2ncc(Br)cn2)c1-c1ccc(Br)cc1 [ACT-064992, N-[5-(4-bromophenyl)-6-(2-(5-bromopyrimidin-2-yloxy)ethoxy)-pyrimidin-4-yl]-N′-propylaminosulfonamide]
cytotoxic effects (degree of apoptosis) [1, 10]: did not produce any measurable cytotoxic effects | expression of survival factor pMAPK (pMAPK): inhibited the expression | Day of death (after treatment) ([2]; ACT064992 10 mg/kg oral daily): 51 days and 63 days and 68 days and 75 days and 78 days and 82 days | proliferating (Ki67) cells in brain (MDA231 brain metastases [3]): a large number of proliferating cells | brain metastatic tumors (histology) (MDA231 brain metastases [4]): well defined metastatic tumors | phosphorylation of ETAR in brain (ETAR): prevented phosphorylation of the ETAR | pharmaceutical activity relative to Bosentan (ETAR/ETBR): roughly three times more pharmaceutically active than Bosentan | expression of survival factor pAKT (pAKT [5]): inhibited the expression | cytotoxic effects (degree of apoptosis) [6, 10]: did not produce any measurable cytotoxic effects | effect on astrocyte-mediated protection from paclitaxel [6, 11]: negate the astrocyte-mediated protection from paclitaxel | efficacy of paclitaxel compared to control experiments without astrocytes (super-sensitization) [6, 11]: enhanced the efficacy of paclitaxel | apoptotic (TUNEL) cells in brain (MDA231 brain metastases [7]): few to no apoptotic cells

COc1cccc2c1C(=O)c1c(O)c3c(c(O)c1C2=O)C[C@@](O)(C(=O)CO)C[C@@H]3O[C@H]1C[C@H](N)[C@H](O)[C@H](C)O1 [Adriamycin]
protection of tumor cells against the drug by co-culture with astrocytes ([1]; paclitaxel 5 ng/ml): significant (P<0.01) protection

COc1ccccc1Oc1c(NS(=O)(=O)c2ccc(C(C)(C)C)cc2)nc(-c2ncccn2)nc1OCCO [Bosentan]
results of Bosentan experiments compared with the ACT-064992 experiments [8]: analogous results

N.N.[Cl][Pt][Cl] [cisplatinum]
protection of tumor cells against the drug by co-culture with astrocytes ([1]; paclitaxel 5 ng/ml): significant (P<0.01) protection

CC(=O)O[C@H]1C(=O)[C@@]2(C)[C@H]([C@H](OC(=O)c3ccccc3)[C@]3(O)C[C@H](OC(=O)[C@H](O)[C@@H](NC(=O)c4ccccc4)c4ccccc4)C(C)=C1C3(C)C)[C@]1(OC(C)=O)CO[C@@H]1C[C@@H]2O [paclitaxel]
protection of tumor cells against the drug by co-culture with astrocytes ([1]; paclitaxel 5 ng/ml): significant (P<0.01) protection | reduction of relative apoptotic index of tumor cells by culturing with astrocytes (increased chemoresistance) ([1]; paclitaxel 5 ng/ml, 72 hours, co-culture with astrocytes (not 3T3 fibroblasts), mean±S.D., P<0.05): 61.8±6.7% | Day of death (after treatment) ([2]; oral vehicle daily): 49 day and 53 day and 60 day and 63 day and 74 day (2×) and 78 day | proliferating (Ki67) cells in brain (MDA231 brain metastases [3]): a large number of proliferating cells | brain metastatic tumors (histology) (MDA231 brain metastases [4]): well defined metastatic tumors | phosphorylation of ETAR in brain (ETAR): expressed phosphorylated ETAR | reduction of relative apoptotic index of tumor cells by culturing with astrocytes (increased chemoresistance) ([6]; paclitaxel 5 ng/ml, 72 hours, co-culture with astrocytes (not 3T3 fibroblasts), mean±S.D., P<0.01): 58.3 ± 8.9% | apoptotic (TUNEL) cells in brain (MDA231 brain metastases [7]): few to no apoptotic cells | pAKT expression by tumor cells (pAKT [9]): high levels of pAKT

CC[C@]1(O)C[C@@H]2CN(CCc3c([nH]c4ccccc34)[C@@](C(=O)OC)(c3cc4c(cc3OC)N(C)[C@H]3[C@@](O)(C(=O)OC)[C@H](OC(C)=O)[C@]5(CC)C=CCN6CC[C@]43[C@@H]65)C2)C1 [vinblastine]
protection of tumor cells against the drug by co-culture with astrocytes ([1]; paclitaxel 5 ng/ml): significant (P<0.01) protection

CC[C@]1(O)C[C@H]2CN(CCc3c([nH]c4ccccc34)[C@@](C(=O)OC)(c3cc4c(cc3OC)N(C=O)[C@H]3[C@@](O)(C(=O)OC)[C@H](OC(C)=O)[C@]5(CC)C=CCN6CC[C@]43[C@@H]65)C2)C1 [vincristine]
protection of tumor cells against the drug by co-culture with astrocytes ([1]; paclitaxel 5 ng/ml): significant (P<0.01) protection
